Results reported in patent US20230026163A1, “ANTICANCER COMPOUND AND MEDICAL USE THEREOF” (ASCENTAWITS PHARMACEUTICALS, LTD., priority 2019, published 2023).

Tests used:
CYP450R enzyme = biological target: T1, CYP450R enzyme (Homo sapiens, UniProt P16435); experiment: Hypoxia-dependent reduction experiment with NADPH and CYP450R; assay type: biochemical; conditions: in the presence of NADPH and CYP450R enzymes
T1 sequence (P16435 1-677): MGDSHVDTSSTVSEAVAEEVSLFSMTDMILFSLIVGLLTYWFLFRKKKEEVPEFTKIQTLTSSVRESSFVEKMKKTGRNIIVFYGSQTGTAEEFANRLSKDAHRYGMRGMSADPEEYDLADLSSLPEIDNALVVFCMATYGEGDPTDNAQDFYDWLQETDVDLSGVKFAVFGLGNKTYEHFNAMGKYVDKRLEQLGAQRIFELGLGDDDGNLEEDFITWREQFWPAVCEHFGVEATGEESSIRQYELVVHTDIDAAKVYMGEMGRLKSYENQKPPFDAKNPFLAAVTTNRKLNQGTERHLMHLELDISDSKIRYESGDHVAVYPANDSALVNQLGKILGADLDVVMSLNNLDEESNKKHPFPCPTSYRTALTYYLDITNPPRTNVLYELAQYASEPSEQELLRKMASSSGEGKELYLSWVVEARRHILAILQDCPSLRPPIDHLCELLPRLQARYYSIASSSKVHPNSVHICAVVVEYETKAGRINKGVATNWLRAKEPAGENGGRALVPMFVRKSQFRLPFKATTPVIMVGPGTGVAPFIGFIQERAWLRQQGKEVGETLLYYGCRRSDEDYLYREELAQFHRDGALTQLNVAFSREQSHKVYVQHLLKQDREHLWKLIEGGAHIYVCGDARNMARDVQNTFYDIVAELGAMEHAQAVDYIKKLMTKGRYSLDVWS
Description: Ingredients were added to each tube without NADPH. Next, 50 μL of the condition B samples were transferred into 100 μL of acetonitrile (T=0). For the samples to be tested under hypoxia condition, the tubes were placed in a hypoxia chamber (BACTRON anaerobic/environmental chamber). The reactions were initiated by adding NADPH to tube A and tube C. Then, the samples with NADPH were placed at 37° C. For the samples to be tested in air condition, the tubes were placed in a hot plate at 37° C. After 30 minutes and 2 hours of incubation, 50 μL of samples were taken from each tube and mixed with 100 μL of acetonitrile. All tubes were spun to remove any protein precipitate and placed in HPLC vials for analysis. The results were compared with the standard curve of the authentic standard. The specific composition of the reagents in each sample reaction tube was shown as follow.
The drugs relative to the initial amount of the test drug (TH-302, compound 01) of the 3 different sample reaction tubes of A/B/C that have been reacted for different times (0/30 min/120 min). The results of adding different concentrations of human NADPH coenzyme were shown in FIG. 3 and FIG. 4, respectively.

AA8 cell line = experiment: Cytotoxicity on AA8 cell line (2 hours exposure, AlamarBlue); assay type: cell-based, Chinese hamster; conditions: Cricetulus griseus, CHO-AA8; AA8, 2 hours exposure, then 70 hours, normoxic
P-glycoprotein = P-glycoprotein (Homo sapiens, UniProt P08183); experiment: in vitro
Chain of P-glycoprotein (P08183 whole entry): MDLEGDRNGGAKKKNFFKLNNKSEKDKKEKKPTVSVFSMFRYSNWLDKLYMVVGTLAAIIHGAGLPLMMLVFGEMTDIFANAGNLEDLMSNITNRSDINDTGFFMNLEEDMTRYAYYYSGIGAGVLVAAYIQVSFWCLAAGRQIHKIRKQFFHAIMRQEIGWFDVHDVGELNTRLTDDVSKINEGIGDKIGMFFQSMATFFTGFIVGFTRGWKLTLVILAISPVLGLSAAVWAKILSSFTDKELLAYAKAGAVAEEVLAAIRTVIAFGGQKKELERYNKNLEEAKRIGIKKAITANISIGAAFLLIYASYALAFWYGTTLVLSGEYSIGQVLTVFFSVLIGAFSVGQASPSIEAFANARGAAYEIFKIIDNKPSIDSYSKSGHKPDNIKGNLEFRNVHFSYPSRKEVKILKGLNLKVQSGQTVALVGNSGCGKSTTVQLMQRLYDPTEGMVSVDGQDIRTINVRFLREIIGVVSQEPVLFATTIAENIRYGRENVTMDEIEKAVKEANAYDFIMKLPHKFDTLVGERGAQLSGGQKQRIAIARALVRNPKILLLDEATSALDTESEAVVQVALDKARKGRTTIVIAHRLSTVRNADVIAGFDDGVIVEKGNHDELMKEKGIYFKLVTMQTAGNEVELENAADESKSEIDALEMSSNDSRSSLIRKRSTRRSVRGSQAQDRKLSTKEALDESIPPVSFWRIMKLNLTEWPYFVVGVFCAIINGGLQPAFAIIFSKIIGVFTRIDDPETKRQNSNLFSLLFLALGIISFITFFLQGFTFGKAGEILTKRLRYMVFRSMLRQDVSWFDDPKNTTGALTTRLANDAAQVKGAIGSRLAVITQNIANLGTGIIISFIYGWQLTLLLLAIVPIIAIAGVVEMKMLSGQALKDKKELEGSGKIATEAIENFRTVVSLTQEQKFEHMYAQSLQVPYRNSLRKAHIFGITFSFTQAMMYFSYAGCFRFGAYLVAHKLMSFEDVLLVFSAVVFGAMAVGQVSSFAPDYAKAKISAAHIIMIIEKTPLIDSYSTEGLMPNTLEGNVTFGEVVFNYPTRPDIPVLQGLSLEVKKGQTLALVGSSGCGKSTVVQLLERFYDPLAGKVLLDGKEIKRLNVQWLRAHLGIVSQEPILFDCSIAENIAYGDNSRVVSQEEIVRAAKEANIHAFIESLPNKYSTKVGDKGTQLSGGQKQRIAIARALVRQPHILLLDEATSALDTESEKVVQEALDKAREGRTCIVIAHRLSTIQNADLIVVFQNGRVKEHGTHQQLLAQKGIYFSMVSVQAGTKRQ
Description: MDCKII-MDR1 cells were incubated in cell culture flasks. The incubator was set at 37° C., 5% CO2, and a guaranteed relative humidity of 95%. When the cells reached 70 to 90% confluence, the cells may be seeded to transwells.
50 μL of the cell suspensions were added to the apical chambers of each well of the 96-well transwells at a final seeding density of 5.45×10^5 cells/cm^2.
MDCKII-MDR1 cells may be fully confluent and differentiated after 4 to 8 days of incubation. At this time, the cells may be applied to penetration test. The monolayer membrane resistance was measured with a resistance meter (Millipore), and the resistance per well was recorded. After the test, the transwells were returned to the incubator.
The transwells with MDCKII-MDR1 cells were taken from the incubator. The cell monolayers were rinsed twice with buffer and incubated at 37° C. for 30 minutes.
The rate of the compounds from an apical end to a basolateral end was determined. 75 μL of the buffer containing the test sample was added to each well of the apical chambers (apical end), and 235 μL of the buffer was added to each well of the basolateral chambers (basolateral end).
The rate of the compounds transporting from the basolateral end to the apical end was determined. 75 μL of the buffer was added to the apical chambers (apical end), and 235 μL of the buffer containing the test sample was added to the basolateral chamber (basolateral end).
After the apical chambers and the basolateral chambers were combined respectively, the transwells were incubated at 37° C. for 2 hours.
After incubation, 50 μL of the sample from each well of the apical chambers and the basolateral chambers of the transwells was transferred to new sample tubes respectively. 200 μL of acetonitrile (100 nM of Alprazolam, 200 nM of Labetalol, 200 nM of caffeine, and 2 μM of Ketoprofen) as an internal standard was added to the sample tubes, vortexed for 10 minutes, and centrifuged at 3220 g for 30 minutes. 100 μL of the supernatant was taken and diluted with an equal volume of water for LC-MS/MS analysis. Each sample was incubated in triplicate.
Peak-areas were calculated from ion chromatography results. The apparent permeability coefficient (Papp, unit: cm/s×10-6) of the compounds was calculated by the following formula.
In the formula, VA was the volume of the solution at the acceptor end (Ap→B1 was 0.235 mL, and B1→Ap was 0.075 mL), Area was the membrane area (0.143 cm^2) of 96-well transwell, time was the incubation time (unit: s), [drug]acceptor referred to the drug concentration of the acceptor end after incubation, and [drug]initial,donor referred to the initial concentration of the donor end before incubation.
Efflux ratio was calculated with the following formula.
In the formula, Papp(B_A) was the apparent permeability coefficient from the basolateral end to the apical end, and Papp(A-B) was the apparent permeability coefficient from the apical end to the basolateral end.
The recovery rate was calculated with the following formula.
In the formula, VA was the solution volume of the acceptor end (unit: mL), VD was the solution volume of the donor end (unit: mL), [drug]acceptor referred to the drug concentration of the acceptor end after incubation, and [drug]initial,donor referred to the initial concentration of the donor end before incubation.

For `O=[N+]([O-])c1ccc(C(OP(=O)(N2CC2)N2CC2)C(F)(F)F)c2ccccc12` (stereo not shown) [Compound 01], the “Reduction ratio compared with TH-302” value (CYP450R enzyme) was “similar”, the Hypoxia-dependent reduction (CYP450R enzyme; 37° C.) was “showed the hypoxia-dependent reduction reaction” and the IC50 (AA8 cell line) was 10.8 µM. For the same compound, the Papp A→B at 2 h (P-glycoprotein; dog, MDCK-MDR1) was 18.6 ×10⁻⁶ cm/s, the Papp B→A at 2 h (P-glycoprotein; dog, MDCK-MDR1) was 11.9 ×10⁻⁶ cm/s and the recovery at 2 h (P-glycoprotein; dog, MDCK-MDR1, Recovery (%) AP-BL, Verapamil 0 μM) was 58.6%. For the same compound, the recovery at 2 h (P-glycoprotein; dog, MDCK-MDR1, Recovery (%) AP-BL, Verapamil 100 μM) was 63.4%, the recovery at 2 h (P-glycoprotein; dog, MDCK-MDR1, Recovery (%) BL-AP, Verapamil 0 μM) was 58.6% and the recovery at 2 h (P-glycoprotein; dog, MDCK-MDR1, Recovery (%) BL-AP, Verapamil 100 μM) was 67.3%. For the same compound, the “P-glycoprotein substrate (experimental conclusion)” value (P-glycoprotein; with vs without Verapamil) was “not P-glycoprotein substrates”.
